# Measurements from the supplement of paper PMC11451515.
# Test system: SEM cells
# Assay: cell viability relative to DMSO control; higher = less cytotoxic
# Conditions: 48 h
# Outline: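 Library compounds in DMSO were pin-dosed in an 11-point threefold series (47 μM to 0.79 nM) onto leukemia cells in 1536-well plates (5 μl). Plates held 500 cells/well of NOMO1 or SEM or 1000 cells/well of P12-Ichikawa, each adapted for at least four passages in each medium. Luminescence was read with CellTiter-Glo One after 48 h at 37°C. Viability means the per-plate percentage relative to DMSO wells, using cell-free wells as background.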
# [1] = HPLM + 10% dialyzed FBS, 0.000781 µM
# [2] = HPLM + 10% dialyzed FBS, 0.00234 µM
# [3] = HPLM + 10% dialyzed FBS, 0.00702 µM
# [4] = HPLM + 10% dialyzed FBS, 0.0211 µM
# [5] = HPLM + 10% dialyzed FBS, 0.0632 µM
# [6] = HPLM + 10% dialyzed FBS, 0.19 µM
# [7] = HPLM + 10% dialyzed FBS, 0.569 µM
# [8] = HPLM + 10% dialyzed FBS, 1.71 µM
# [9] = HPLM + 10% dialyzed FBS, 5.12 µM
# [10] = HPLM + 10% dialyzed FBS, 15.4 µM
# [11] = HPLM + 10% dialyzed FBS, 46.1 µM
# [12] = RPMI 5 mM glucose + 10% FBS, 0.000781 µM
# [13] = RPMI 5 mM glucose + 10% FBS, 0.00234 µM
# [14] = RPMI 5 mM glucose + 10% FBS, 0.00702 µM
# [15] = RPMI 5 mM glucose + 10% FBS, 0.0211 µM
# [16] = RPMI 5 mM glucose + 10% FBS, 0.0632 µM
# [17] = RPMI 5 mM glucose + 10% FBS, 0.19 µM
# [18] = RPMI 5 mM glucose + 10% FBS, 0.569 µM
# [19] = RPMI 5 mM glucose + 10% FBS, 1.71 µM
# [20] = RPMI 5 mM glucose + 10% FBS, 5.12 µM
# [21] = RPMI 5 mM glucose + 10% FBS, 15.4 µM
# [22] = RPMI 5 mM glucose + 10% FBS, 46.1 µM
# [23] = RPMI 5 mM glucose + 10% dialyzed FBS, 0.000781 µM
# [24] = RPMI 5 mM glucose + 10% dialyzed FBS, 0.00234 µM
# [25] = RPMI 5 mM glucose + 10% dialyzed FBS, 0.00702 µM
# [26] = RPMI 5 mM glucose + 10% dialyzed FBS, 0.0211 µM
# [27] = RPMI 5 mM glucose + 10% dialyzed FBS, 0.0632 µM
# [28] = RPMI 5 mM glucose + 10% dialyzed FBS, 0.19 µM
# [29] = RPMI 5 mM glucose + 10% dialyzed FBS, 0.569 µM
# [30] = RPMI 5 mM glucose + 10% dialyzed FBS, 1.71 µM
# [31] = RPMI 5 mM glucose + 10% dialyzed FBS, 5.12 µM
# [32] = RPMI 5 mM glucose + 10% dialyzed FBS, 15.4 µM
# [33] = RPMI 5 mM glucose + 10% dialyzed FBS, 46.1 µM
Structure (SMILES),cell viability [1] [%],cell viability [2] [%],cell viability [3] [%],cell viability [4] [%],cell viability [5] [%],cell viability [6] [%],cell viability [7] [%],cell viability [8] [%],cell viability [9] [%],cell viability [10] [%],cell viability [11] [%],cell viability [12] [%],cell viability [13] [%],cell viability [14] [%],cell viability [15] [%],cell viability [16] [%],cell viability [17] [%],cell viability [18] [%],cell viability [19] [%],cell viability [20] [%],cell viability [21] [%],cell viability [22] [%],cell viability [23] [%],cell viability [24] [%],cell viability [25] [%],cell viability [26] [%],cell viability [27] [%],cell viability [28] [%],cell viability [29] [%],cell viability [30] [%],cell viability [31] [%],cell viability [32] [%],cell viability [33] [%]
Cc1cnc(Nc2cccc(CN3CCOCC3)c2)nc1Nc1cccc([S+](=O)([O-])NC(C)(C)C)c1,77.4,80.3,97.3,91.7,74.4,72.1,84.7,36.4,15.7,69.1,53.6,79.7,88.8,94.5,110,82.1,87.9,79,58,9.88,74,21.9,79.6,93.5,93.5,84.9,72.5,64,81.8,17.9,9.6,66.4,39.3
C[C@]12CC[C@H]3[C@@H](CC[C@@]45O[C@@H]4C(O)=C(C#N)C[C@]35C)[C@@H]1CC[C@@H]2O,89.7,79.7,102,97.3,109,106,108,111,89.6,86.3,12.4,90.9,84.7,95.5,86,90.4,81.4,75.4,84.6,56.9,58.8,4.92,116,107,121,105,114,102,110,110,87.2,52.8,5.45
O=C(O)c1cccnc1,111,117,109,118,105,106,98.2,37.5,14.4,9.12,6.43,–,–,–,–,–,–,–,–,–,–,–,–,–,–,–,–,–,–,–,–,–,–
COc1cccc(N(C)C(=S)Oc2ccc3c(c2)CCCC3)n1,75.6,66.4,85.4,88.1,91.2,84,95.4,82.5,76.5,82.8,65.6,75,83,86.7,94,104,96.2,93.1,97,99.3,97.9,92.8,96.7,95.1,90.2,93.3,91.3,100,101,97.5,87.8,98.5,84.6
CCCCN1CCC(CNC(=O)c2c3n(c4ccccc24)CCCO3)CC1,81.3,85.3,92.1,90.9,94.5,57.7,117,107,108,89.7,68.4,84.9,102,112,91.3,117,75.3,105,118,113,93.5,80.6,105,101,110,94.4,111,67.5,103,103,115,79,79.8
O=C1c2ccccc2-c2n[nH]c3cccc1c23,82.9,101,121,97.9,99,104,5.3,102,112,76.8,37.4,82,107,97.3,103,106,107,6.25,98.2,90.5,63.6,21.2,86.6,93.9,99.1,105,91,116,5.93,92.9,103,67.4,26.7
COc1cc(C[C@@H](CO)[C@H](CO)Cc2ccc(O)c(OC)c2)ccc1O,84,89.3,92.1,95,104,109,114,107,111,89.1,105,91.8,85.1,88.4,81.8,91.7,105,106,104,105,110,93.3,85.7,92.7,98.1,99.7,113,102,105,112,108,108,110
Cc1nnc(C(=O)NC(C)(C)c2nc(C(=O)NCc3ccc(F)cc3)c(O)c(=O)n2C)o1,107,111,116,102,101,123,113,108,104,108,107,96.7,101,99.2,120,125,93.8,107,80.8,90.9,97,111,105,106,109,122,109,117,107,109,93.9,98.9,110
